This is an account of results in PubChem BioAssay (NCI).

Several values for one entry are separate records, joined by “and”; a condition that tells them apart may be missing. Equal entries are not always repeated.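 Values below derive from 48-hour exposures of cells grown in 96-well plates, with endpoints linearly interpolated between the two concentrations bracketing the appropriate inhibition level. GI50 = concentration required for 50% inhibition of growth. The concentration for full growth arrest is given as TGI.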

Test systems include SK-MEL-28 melanoma; M14 melanoma; SNB-75 CNS; HCC-2998 colon; NCI-H226 lung; MDA-MB-231 breast; IGROV1 ovarian; SF-539 CNS; HOP-62 NSCLC; UO-31 renal.
Holding throughout (assay): NCI tumour cell line growth inhibition, 48 h

As to `O=[N+]([O-])c1cccc(C2CC(c3ccccc3)=Nc3ccccc3S2)c1` (stereo not given), the GI50 in the test on SK-MEL-28 melanoma was 17.4 µM; in the test with M14 melanoma, 19.2 µM; with SNB-75 CNS it was 9.53 µM; in the test on HCC-2998 colon it was 16 µM; with NCI-H226 lung, 72.4 µM; in the test on MDA-MB-231 breast, 12.9 µM. For the same compound, the GI50 in the test with IGROV1 ovarian is 16.1 µM; in the test with SF-539 CNS it was 17.2 µM; with HOP-62 NSCLC, 37.8 µM; in the test on UO-31 renal it was 9.61 µM. The TGI was 34.2 µM with SK-MEL-28 melanoma; 44.6 µM in the test on M14 melanoma; more than 100 µM with SNB-75 CNS; 31 µM in the test on HCC-2998 colon; more than 100 µM in the test with NCI-H226 lung; 33.6 µM in the test with MDA-MB-231 breast. Also, the TGI in the test with IGROV1 ovarian was 35.6 µM; in the test on SF-539 CNS, 31.3 µM; in the test on HOP-62 NSCLC it was more than 100 µM; in the test on UO-31 renal, 21.9 µM.

Take `N=c1c2c(=N)n3c(nc2nc2n1-c1ccccc1Sc1ccccc1-2)sc1cc(Cl)ccc13`: the GI50 in the test on SK-MEL-28 melanoma is 2.65 µM; with M14 melanoma it was 4.11 µM; in the test with SNB-75 CNS, 1.83 µM; in the test on HCC-2998 colon, 1.32 µM; with NCI-H226 lung it was 1.73 µM; in the test with MDA-MB-231 breast, 2.8 µM. The GI50 in the test on IGROV1 ovarian was 3.51 µM; in the test with SF-539 CNS, 5.07 µM; in the test with HOP-62 NSCLC, 5.87 µM; in the test on UO-31 renal it was 1.29 µM. In addition, the TGI in the test on SK-MEL-28 melanoma was 13.6 µM; in the test on M14 melanoma, more than 100 µM; with SNB-75 CNS it was 65.4 µM; in the test on HCC-2998 colon, 4.97 µM; in the test on NCI-H226 lung, 16.8 µM; with MDA-MB-231 breast, 14 µM. The TGI with IGROV1 ovarian was found to be 35.4 µM; in the test with SF-539 CNS, 30.6 µM; with HOP-62 NSCLC, 24.1 µM; in the test with UO-31 renal it was 7.68 µM.

With `COc1cc2nc3cc([N+](=O)[O-])ccc3c(NCCNCC(C)(C)O)c2cc1OC`, the GI50 with M14 melanoma is 1.29 µM; with SNB-75 CNS, 0.608 µM; in the test with NCI-H226 lung it was 1.28 µM; in the test on MDA-MB-231 breast it was 0.451 µM; with IGROV1 ovarian, 0.457 µM; in the test on SF-539 CNS, 0.566 µM. For the same compound, the results for the GI50 with HOP-62 NSCLC and with UO-31 renal were 0.953 µM and 1.85 µM, respectively. Also, the TGI came to 3.05 µM in the test on M14 melanoma; 2.05 µM with SNB-75 CNS; 4.05 µM in the test with NCI-H226 lung; 2.41 µM with MDA-MB-231 breast; 2.16 µM in the test on IGROV1 ovarian; 2.12 µM in the test with SF-539 CNS. The TGI with HOP-62 NSCLC came to 3.26 µM; in the test on UO-31 renal, 5.93 µM.

For `CN(Cc1cnc2nc(N)nc(N)c2n1)c1ccc(C(=O)NC(CCC(=O)O)C(=O)O)cc1Br` (stereo not given), the GI50 in the test with SK-MEL-28 melanoma was 0.23 µM; with M14 melanoma it was less than 0.01 µM; in the test with HCC-2998 colon it was less than 0.01 µM; in the test with NCI-H226 lung, less than 0.01 µM; in the test with MDA-MB-231 breast it was 6.02 µM; with IGROV1 ovarian, less than 0.01 µM. Besides, the GI50 with SF-539 CNS, with HOP-62 NSCLC and with UO-31 renal was less than 0.01 µM in each case. Further, the TGI was 19.5 µM in the test on SK-MEL-28 melanoma; 5.95 µM in the test with M14 melanoma; 5.06 µM in the test on SNB-75 CNS; more than 96.4 µM in the test on NCI-H226 lung; more than 100 µM in the test on MDA-MB-231 breast; 1.01 µM in the test with IGROV1 ovarian. Further, the TGI with SF-539 CNS stood at 8.44 µM.

For the compound `CO[C@H]1C[C@@H]2CC[C@@H](C)[C@@](O)(O2)C(=O)C(=O)N2CCCC[C@H]2C(=O)O[C@H]([C@H](C)C[C@@H]2CC[C@@H](OCCO)[C@H](OC)C2)CC(=O)[C@H](C)C=C(C)[C@@H](O)[C@@H](OC)C(=O)[C@H](C)C[C@H](C)/C=C/C=C/C=C1C`, the GI50 in the test on SK-MEL-28 melanoma is 11.3 µM; in the test with M14 melanoma, 3.12 µM; with SNB-75 CNS it was less than 0.01 µM; in the test with HCC-2998 colon it was 4.48 µM; with MDA-MB-231 breast, 11.6 µM; in the test on IGROV1 ovarian it was less than 0.01 µM. Besides, the GI50 with SF-539 CNS, in the test on HOP-62 NSCLC and with UO-31 renal was less than 0.01 µM each time. Moreover, the TGI with SK-MEL-28 melanoma stood at 24.5 µM; with M14 melanoma, 20.5 µM; in the test with SNB-75 CNS it was 14.1 µM; in the test with HCC-2998 colon it was 22.1 µM; in the test with NCI-H226 lung it was 23.5 µM; in the test with MDA-MB-231 breast, 35.4 µM. Moreover, the TGI in the test with IGROV1 ovarian was 17 µM; in the test with SF-539 CNS, 15.3 µM; in the test with HOP-62 NSCLC it was 19.2 µM; with UO-31 renal, 14.5 µM.

On to `CCCCCCCCCCCCCC[C@@H](O)[C@H]1CC[C@H]([C@H]2CC[C@H]([C@H](O)CCCCCC[C@@H](O)CC3=C[C@H](C)OC3=O)O2)O1`, for which the GI50 is 2.9 µM with SK-MEL-28 melanoma; 1.74 µM in the test with M14 melanoma; 1.7 µM in the test on SNB-75 CNS; 1.71 µM in the test on NCI-H226 lung; 2.31 µM with MDA-MB-231 breast; 2.61 µM in the test on IGROV1 ovarian. Moreover, the GI50 in the test on SF-539 CNS is 2.25 µM; with HOP-62 NSCLC, 2.74 µM; with UO-31 renal, 1.21 µM. Also, the TGI is more than 25 µM with SK-MEL-28 melanoma; 3.44 µM and > 25 µM with M14 melanoma; 4.95 µM and > 25 µM in the test with SNB-75 CNS; more than 25 µM with HCC-2998 colon; 5.04 µM and > 25 µM in the test with NCI-H226 lung; 8.9 µM and > 25 µM with MDA-MB-231 breast. In addition, the TGI was 8.75 µM and > 25 µM with IGROV1 ovarian; 6.85 µM and > 25 µM in the test on SF-539 CNS; more than 25 µM in the test on HOP-62 NSCLC; 2.59 µM and > 25 µM in the test with UO-31 renal.

For the compound `CC[C@H](C)[C@H](NC(=O)CN(C)C)C(=O)N(C)[C@H](C[C@@H](OC(C)=O)c1nc(C(=O)NC23CC(C(=O)OC)(C2)C3)cs1)C(C)C`, the GI50 is 3.06 µM in the test with SK-MEL-28 melanoma; 0.0995 µM with M14 melanoma; 0.0883 µM in the test on SNB-75 CNS; 0.49 µM in the test on HCC-2998 colon; more than 25 µM in the test with NCI-H226 lung; 0.287 µM in the test with MDA-MB-231 breast. For the same compound, the GI50 in the test on IGROV1 ovarian is 0.412 µM; in the test with SF-539 CNS, 0.307 µM; with HOP-62 NSCLC, 2.97 µM; in the test with UO-31 renal it was 12.6 µM. Besides, the TGI in the test with SK-MEL-28 melanoma was more than 25 µM; in the test with M14 melanoma it was more than 5.78 µM; in the test on SNB-75 CNS it was more than 25 µM; with HCC-2998 colon, more than 25 µM; in the test on NCI-H226 lung it was more than 25 µM; in the test with MDA-MB-231 breast, more than 12.2 µM. The TGI was more than 25 µM with IGROV1 ovarian, 1.56 µM in the test on SF-539 CNS, more than 25 µM with HOP-62 NSCLC and more than 25 µM in the test with UO-31 renal.
